Where a SMILES comes first, the peptide text is derived from it. [ ]: non-standard residue; d: D form.
How the values were obtained:
[1] = test system: clinical strains of Pseudomonas aeruginosa; test: MIC, clinical strains of P. aeruginosa; assay type: cell-based; set-up: unit: μg/ml; conditions: microdilution, Muller Hinton broth-cation adjusted, 0.02% BSA, 0.2% acetic acid
Procedure: (§1) Minimum inhibition concentrations (MICs) were determined against Escherichia coli (ATCC 25922), Staphylococcus aureus (ATCC 25923), Klebsiella pneumoniae (ATCC 10031) and Pseudomonas aeruginosa (ATCC 27853). Also clinical strains of E. coli, K. pneumoniae, E. cloacae, P. aeruginosa, Serratia marcescens, Proteus mirabilis, S. pneumoniae, Acinetobacter baumannii, A. johnsonii and S. aureus were used for MICs assays. Additionally, clinical strains of yeast including Candida albicans, C. glabrata, C. parapsilosis and C. quillermondiae were used. The susceptibility of these microorganisms to Chain peptides were determined using micro broth dilution assay. Colonies of the respective microorganism from Muller Hinton (MH) agar plates incubated overnight were suspended in MH broth media and final concentration of microorganism was adjusted to 5.0×10^5 cfu/ml. An aliquot of 10 μl of each Chain peptide, or gentamicin, tetracycline as reference antibiotics were added in differing concentrations along with 90 μl of bacterial suspension to 96 well polypropylene plates and incubated at 37° C. for 20 to 24 hours. Concentrations of Chain peptides and reference antibiotics ranged from 0.125 to 128 μg/ml and the MICs were recorded as the lowest concentration with no visual growth of bacteria. Similarly, antifungal MICs were tested in Potato dextrose broth.
(§2) Clinical strains of yeasts including Candida albicans, C. glabrata, C. parapsilosis and C. quillermondiae were also tested with the 12 Chain peptides. The minimum inhibitory concentration (MICs) varied between these peptides and are presented in Tables 4a, 4b, 4c and 5a, 5b, 5c. Peptides Chain 105, 201 and 308 are broad spectrum antimicrobials with MICs between 0.5-32 μg/ml against all the bacteria and yeasts tested, except Serratia marcescens and Proteus mirabilis, against which the MICs were between 64-128 μg/ml. Peptide Chain 306 has narrow spectrum activity against E.coli at 1 μg/ml and for the rest of the bacterial strains at >32 μg/ml (FIG. 10).

[2] = test system: clinical strains of C. quillermondiae; test: MIC, clinical yeast strains, C. quillermondiae; assay type: cell-based; conditions: C. quillermondiae clinical yeast strain 1
Method in brief: (§3)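 MH broth; 5.0×10^5 cfu/ml; peptides 0.125–128 μg/ml; 37° C., 20–24 h; visual no-growth endpoint. Fungal MICs in potato dextrose broth.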

[3] = test system: clinical strains of C. glabrata; test: MIC, clinical yeast strains, C. glabrata; assay type: cell-based, Candida glabrata; set-up: unit: μg/ml
Method in brief: as §3

[4] = test system: clinical strains of Enterobacter cloacae; test: MIC, clinical strains of Enterobacter cloacae; assay type: cell-based; set-up: unit: μg/ml; conditions: microdilution, Muller Hinton broth-cation adjusted, 0.02% BSA, 0.2% acetic acid
Procedure: as §1, §2

[5] = test system: clinical strains of Candida albicans; test: MIC, clinical yeast strains, Candida albicans; assay type: cell-based; set-up: unit: μg/ml
Method in brief: as §3

[6] = test system: clinical strains of Escherichia coli; test: MIC, clinical strains of E. coli; assay type: cell-based; set-up: unit: μg/ml; conditions: microdilution, Muller Hinton broth-cation adjusted, 0.02% BSA, 0.2% acetic acid
Procedure: as §1, §2

[7] = test system: clinical strains of Klebsiella pneumoniae; test: MIC, clinical strains of K. pneumoniae; assay type: cell-based; set-up: unit: μg/ml; conditions: microdilution, Muller Hinton broth-cation adjusted, 0.02% BSA, 0.2% acetic acid
Procedure: as §1, §2

[8] = test system: clinical strains of Staphylococcus aureus; test: MIC, clinical strains of S. aureus; assay type: cell-based; set-up: unit: μg/ml; conditions: microdilution, Muller Hinton broth-cation adjusted, 0.02% BSA, 0.2% acetic acid
Procedure: as §1, §2

[9] = test system: clinical strains of Serratia marcescens; test: MIC, clinical strains of Serratia marcescens; assay type: cell-based; set-up: unit: µg/mL; conditions: microdilution, Muller Hinton broth-cation adjusted, 0.02% BSA, 0.2% acetic acid
Procedure: as §1, §2

[10] = test system: clinical strains of Streptococcus pneumoniae; test: MIC, clinical strains of Streptococcus pneumoniae; assay type: cell-based; set-up: unit: µg/mL; conditions: microdilution, Muller Hinton broth-cation adjusted, 0.02% BSA, 0.2% acetic acid
Procedure: as §1, §2

[11] = test system: clinical strains of C. parapsilosis; test: MIC, clinical yeast strains, C. parapsilosis; assay type: cell-based, Candida parapsilosis; set-up: unit: μg/ml
Method in brief: as §3

[12] = test system: clinical strains of Proteus mirabilis; test: MIC, clinical strains of Proteus mirabilis; assay type: cell-based; set-up: unit: µg/mL; conditions: microdilution, Muller Hinton broth-cation adjusted, 0.02% BSA, 0.2% acetic acid
Procedure: as §1, §2

Compound: CC(C)C[C@@H](NC(=O)[C@H](N)CCCNC(=N)N)C(=O)N[C@H](CCCCN)C(=O)N[C@H](Cc1c[nH]c2ccccc12)C(=O)N[C@H](Cc1ccccc1)C(=O)N[C@H](Cc1c[nH]c2ccccc12)C(=O)N[C@H](CC(C)C)C(=O)N[C@H](Cc1ccccc1)C(=O)N[C@H](CCCNC(=N)N)C(=O)N[C@H](CCCCN)C(=O)N[C@H](CCCNC(=N)N)C(=O)O [Chain307D] (H-[dR][dL][dK][dW][dF][dW][dL][dF][dR][dK][dR]-OH)
- Minimum inhibitory concentration ([1]; Pseudomonas aeruginosa clinical strain 1): 16
- Minimum inhibitory concentration ([1]; Pseudomonas aeruginosa clinical strain 2): 16
- Minimum inhibitory concentration ([1]; Pseudomonas aeruginosa clinical strain 3): 16
- Minimum inhibitory concentration ([1]; Pseudomonas aeruginosa clinical strain 4): 8
- Minimum inhibitory concentration ([1]; Pseudomonas aeruginosa clinical strain 5): 8
- Minimum inhibitory concentration [2]: 4
- Minimum inhibitory concentration ([3]; C. glabrata clinical yeast strain 1): 8
- Minimum inhibitory concentration ([3]; C. glabrata clinical yeast strain 2): 16
- Minimum inhibitory concentration ([3]; C. glabrata clinical yeast strain 3): 8
- Minimum inhibitory concentration ([3]; C. glabrata clinical yeast strain 4): 16
- Minimum inhibitory concentration ([4]; Enterobacter cloacae clinical strain 1): 4
- Minimum inhibitory concentration ([4]; Enterobacter cloacae clinical strain 2): 8
- Minimum inhibitory concentration ([4]; Enterobacter cloacae clinical strain 3): 4
- Minimum inhibitory concentration ([4]; Enterobacter cloacae clinical strain 4): 4
- Minimum inhibitory concentration ([4]; Enterobacter cloacae clinical strain 5): 4
- Minimum inhibitory concentration ([5]; Candida albicans clinical yeast strain 1): 16
- Minimum inhibitory concentration ([5]; Candida albicans clinical yeast strain 2): 16
- Minimum inhibitory concentration ([5]; Candida albicans clinical yeast strain 3): 16
- Minimum inhibitory concentration ([5]; Candida albicans clinical yeast strain 4): 16
- Minimum inhibitory concentration ([5]; Candida albicans clinical yeast strain 5): 16
- Minimum inhibitory concentration ([6]; Escherichia coli clinical strain 1): 4
- Minimum inhibitory concentration ([6]; Escherichia coli clinical strain 2): 4
- Minimum inhibitory concentration ([6]; Escherichia coli clinical strain 3): 4
- Minimum inhibitory concentration ([6]; Escherichia coli clinical strain 4): 2
- Minimum inhibitory concentration ([6]; Escherichia coli clinical strain 5): 4
- Minimum inhibitory concentration ([7]; Klebsiella pneumoniae clinical strain 1): 8
- Minimum inhibitory concentration ([7]; Klebsiella pneumoniae clinical strain 2): 8
- Minimum inhibitory concentration ([7]; Klebsiella pneumoniae clinical strain 3): 16
- Minimum inhibitory concentration ([7]; Klebsiella pneumoniae clinical strain 4): 16
- Minimum inhibitory concentration ([7]; Klebsiella pneumoniae clinical strain 5): 4
- Minimum inhibitory concentration ([8]; Staphylococcus aureus clinical strain 1): 2
- Minimum inhibitory concentration ([8]; Staphylococcus aureus clinical strain 2): 2
- Minimum inhibitory concentration ([8]; Staphylococcus aureus clinical strain 3): 2
- Minimum inhibitory concentration ([8]; Staphylococcus aureus clinical strain 4): 2
- Minimum inhibitory concentration ([8]; Staphylococcus aureus clinical strain 5): 2
- Minimum inhibitory concentration ([9]; Serratia marcescens clinical strain 1): >128
- Minimum inhibitory concentration ([9]; Serratia marcescens clinical strain 2): >128
- Minimum inhibitory concentration ([9]; Serratia marcescens clinical strain 3): 128
- Minimum inhibitory concentration ([9]; Serratia marcescens clinical strain 4): >128
- Minimum inhibitory concentration ([9]; Serratia marcescens clinical strain 5): >128
- Minimum inhibitory concentration ([10]; Streptococcus pneumoniae clinical strain 1): 4
- Minimum inhibitory concentration ([10]; Streptococcus pneumoniae clinical strain 2): 4
- Minimum inhibitory concentration ([10]; Streptococcus pneumoniae clinical strain 3): 4
- Minimum inhibitory concentration ([10]; Streptococcus pneumoniae clinical strain 4): 2
- Minimum inhibitory concentration ([10]; Streptococcus pneumoniae clinical strain 5): 2
- Minimum inhibitory concentration ([11]; C. parapsilosis clinical yeast strain 1): 16
- Minimum inhibitory concentration ([11]; C. parapsilosis clinical yeast strain 2): 8
- Minimum inhibitory concentration ([11]; C. parapsilosis clinical yeast strain 3): 8
- Minimum inhibitory concentration ([11]; C. parapsilosis clinical yeast strain 4): 8
- Minimum inhibitory concentration ([12]; Proteus mirabilis clinical strain 1): >128
- Minimum inhibitory concentration ([12]; Proteus mirabilis clinical strain 2): 128
- Minimum inhibitory concentration ([12]; Proteus mirabilis clinical strain 3): 128
- Minimum inhibitory concentration ([12]; Proteus mirabilis clinical strain 4): >128
- Minimum inhibitory concentration ([12]; Proteus mirabilis clinical strain 5): >128
